# In US7427617B2, “Morpoline-bridged indazole derivatives” (Bayer Healthcare AG, priority 2002, dated 2008):
# Tested on: primary cortical neurons
# Assay: Increase of cGMP in primary cortical neurons
# Type: cell-based
# Details: 0.1 μM test substance; rat primary cortical neurons; IBMX 100 μM; 20 min at 37° C.; cGMP by EIA
# Experimental: Increase of cGMP in Primary Cortical Neurons
# Rat embryos (embryonic day 17-19) are decapitated, and the cerebrum is removed and incubated with 5 ml of papain solution and 250 μl of DNAse (papain kit from Cell-System) at 37° C. for 30 min, homogenized using a Pasteur pipette and centrifuged at 1200 rpm for 5 min. The supernatant is removed, the cell pellet resuspended (in 2.7 ml of EBSS [Earl's balanced salt solution], 300 μl of ovomucoid/albumin (conc.) solution, 150 μl of DNAse; papain kit from Cell-System), layered over 5 ml of ovomucoid/albumin solution and centrifuged at 700 rpm for 6 min. The supernatant is removed, the cells are resuspended in cultivation medium (Gibco neurobasal medium, B27 Supplement 50×1 ml/100 ml, 2 mM L-glutamine), counted (approx. 150 000 cells/well) and plated out on poly-D-lysine-coated 96-well plates (Costar) with 200 μl/well. After 6-7 days at 37° C. (5% CO2), the neurons are freed of culture medium and washed once with assay buffer (154 mM NaCl, 5.6 mM KCl, 2.3 mM CaCl22H2O, 1 mM MgCl2, 5.6 mM glucose, 8.6 mM HEPES (4-(2-hydroxyethyl)piperazine-1-ethanesulfonic acid), pH=7.4). […] After incubation at 37° C. for 20 min, the assay buffer is replaced by 200 μl/well of lysis buffer (cGMP EIA RPN 226 from Amersham Pharmacia Biotech), and the cGMP content of the lystates is determined using an EIA assay kit.
smiles,measurement,value
"Nc1nc(-c2nn(Cc3ccccc3F)c3ccccc23)ncc1N1C2CCCC1COC2 [Example 1, 2-[1-(2-Fluorobenzyl)-1H-indazol-3-yl]-5-(3-oxa-9-azabicyclo[3.3.1]non-9-yl)-4pyrimidinylamine]",increase in cGMP,statistically significant increase in cGMP
